Laboratory results published in the supplement of paper PMC10307832.

What follows are cell lines tested with CC1=C(C(=NN1)C)CC2=C(C3=C(S2)N(C(=O)N(C3=O)C)CC(C)C)C(=O)N4C[C@@H](CO4)O + O=C(CCCCCCC(=O)Nc1ccccc1)NO [Vorinostat] (partner 1 µM) (assay: relative viability (nuclei count vs DMSO), 5 days (fraction); higher = more cells survive). Details: first compound 0.0025 µM.
Procedure, shortened: (§1)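 After 5 days of treatment, lung cancer cells in 1536-well plates were fixed and stained in a single step (final 0.05% Triton X-100, 1% formaldehyde, 1 ug/ml Hoechst) and their nuclei counted on 4× images. Treatment had been applied by pin tool the day after seeding as one drug alone or as a fixed anchor-drug dose with five library-drug doses (not always all listed) in √10 steps. Relative viability is the nuclei count of treated wells divided by that of vehicle wells, and values are medians of duplicate plates.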

Cell Line | relative viability
BEN | 0.553
HARA | 0.511
NCI-H322M | 0.876
LCLC-97TM1 | 0.984
NCI-H2009 | 0.703
A-427 | 0.899
NCI-H441 | 0.959
NCI-H661 | 0.787
NCI-H1734 | 0.88
NCI-H460 | 0.859
NCI-H2347 | 0.588
SK-LU-1 | 0.744
NCI-H1395 | 0.75
201T | 0.979
NCI-H1915 | 0.573
HCC-827 | 0.805

Cell Line | relative viability
LXF-289 | 0.881
NCI-H23 | 0.76
NCI-H647 | 0.564
CAL-12T | 0.956
NCI-H1651 | 0.504
EPLC-272H | 0.454
NCI-H2228 | 0.559
NCI-H1355 | 0.72
NCI-H3122 | 1.03
NCI-H1437 | 0.796
NCI-H1755 | 0.792
NCI-H2023 | 0.621
HCC-15 | 1.04
NCI-H1793 | 0.72
PC-14 | 0.824
EKVX | 0.863

Same assay, conditions: first compound 0.007906 µM

Cell Line | relative viability
BEN | 0.493
HARA | 0.657
NCI-H322M | 0.821
LCLC-97TM1 | 1.03
NCI-H2009 | 0.785
A-427 | 0.895
NCI-H441 | 0.774
NCI-H661 | 0.863
NCI-H1734 | 0.868
NCI-H460 | 0.689
NCI-H2347 | 0.624
SK-LU-1 | 0.528
NCI-H1395 | 0.663
201T | 1.02
NCI-H1915 | 0.541
HCC-827 | 0.91

Cell Line | relative viability
LXF-289 | 0.748
NCI-H23 | 0.627
NCI-H647 | 0.744
CAL-12T | 0.962
NCI-H1651 | 0.601
EPLC-272H | 0.447
NCI-H2228 | 0.811
NCI-H1355 | 0.632
NCI-H3122 | 1.12
NCI-H1437 | 0.882
NCI-H1755 | 0.781
NCI-H2023 | 0.797
HCC-15 | 0.829
NCI-H1793 | 0.959
PC-14 | 0.885
EKVX | 0.756

Same assay, conditions: first compound 0.025 µM

Cell Line | relative viability
BEN | 0.593
HARA | 0.653
NCI-H322M | 0.857
LCLC-97TM1 | 0.575
NCI-H2009 | 0.735
A-427 | 0.865
NCI-H441 | 0.716
NCI-H661 | 0.746
NCI-H1734 | 0.768
NCI-H460 | 0.634
NCI-H2347 | 0.544
SK-LU-1 | 0.571
NCI-H1395 | 0.508
201T | 0.951
NCI-H1915 | 0.488
HCC-827 | 0.837

Cell Line | relative viability
LXF-289 | 0.829
NCI-H23 | 0.638
NCI-H647 | 0.473
CAL-12T | 0.827
NCI-H1651 | 0.505
EPLC-272H | 0.61
NCI-H2228 | 0.681
NCI-H1355 | 0.66
NCI-H3122 | 1.1
NCI-H1437 | 0.833
NCI-H1755 | 0.724
NCI-H2023 | 0.645
HCC-15 | 0.839
NCI-H1793 | 0.757
PC-14 | 0.692
EKVX | 0.806

Same assay, conditions: first compound 0.07906 µM

Cell Line | relative viability
BEN | 0.527
HARA | 0.516
NCI-H322M | 0.953
LCLC-97TM1 | 0.72
NCI-H2009 | 0.756
A-427 | 0.826
NCI-H441 | 0.696
NCI-H661 | 0.805
NCI-H1734 | 0.745
NCI-H460 | 0.723
NCI-H2347 | 0.559
SK-LU-1 | 0.611
NCI-H1395 | 0.756
201T | 0.952
NCI-H1915 | 0.51
HCC-827 | 0.843

Cell Line | relative viability
LXF-289 | 0.671
NCI-H23 | 0.587
NCI-H647 | 0.617
CAL-12T | 0.801
NCI-H1651 | 0.545
EPLC-272H | 0.438
NCI-H2228 | 0.649
NCI-H1355 | 0.55
NCI-H3122 | 0.731
NCI-H1437 | 0.868
NCI-H1755 | 0.632
NCI-H2023 | 0.545
HCC-15 | 0.875
NCI-H1793 | 0.733
PC-14 | 0.824
EKVX | 0.604

Same assay, conditions: first compound 0.25 µM

Cell Line | relative viability
BEN | 0.536
HARA | 0.509
NCI-H322M | 0.801
LCLC-97TM1 | 0.776
NCI-H2009 | 0.701
A-427 | 0.929
NCI-H441 | 1.12
NCI-H661 | 0.834
NCI-H1734 | 0.76
NCI-H460 | 0.857
NCI-H2347 | 0.431
SK-LU-1 | 0.611
NCI-H1395 | 0.683
201T | 0.973
NCI-H1915 | 0.588
HCC-827 | 1.01

Cell Line | relative viability
LXF-289 | 0.762
NCI-H23 | 0.737
NCI-H647 | 0.606
CAL-12T | 0.772
NCI-H1651 | 0.581
EPLC-272H | 0.351
NCI-H2228 | 0.9
NCI-H1355 | 0.662
NCI-H3122 | 0.918
NCI-H1437 | 0.906
NCI-H1755 | 0.719
NCI-H2023 | 0.636
HCC-15 | 0.81
NCI-H1793 | 0.747
PC-14 | 0.982
EKVX | 0.416

The cell lines below were run with CC1=C(C(=NN1)C)CC2=C(C3=C(S2)N(C(=O)N(C3=O)C)CC(C)C)C(=O)N4C[C@@H](CO4)O + Cc1nc(Nc2ncc(C(=O)Nc3c(C)cccc3Cl)s2)cc(N2CCN(CCO)CC2)n1 [Dasatinib] (partner 0.075 µM) in the same assay as above. Details: first compound 0.0025 µM.
Procedure, shortened: as §1

Cell Line | relative viability
BEN | 0.296
HARA | 0.243
NCI-H322M | 0.257
LCLC-97TM1 | 0.898
NCI-H2009 | 0.354
A-427 | 0.746
NCI-H441 | 0.65
NCI-H661 | 0.907
NCI-H1734 | 0.504
NCI-H460 | 0.552
NCI-H2347 | 0.394
SK-LU-1 | 0.194
NCI-H1395 | 0.412
201T | 0.579
NCI-H1915 | 0.284
HCC-827 | 0.288

Cell Line | relative viability
LXF-289 | 0.248
NCI-H23 | 0.926
NCI-H647 | 0.408
CAL-12T | 0.49
NCI-H1651 | 0.445
EPLC-272H | 0.527
NCI-H2228 | 0.507
NCI-H1355 | 0.759
NCI-H3122 | 0.988
NCI-H1437 | 0.393
NCI-H1755 | 0.497
NCI-H2023 | 0.671
HCC-15 | 0.605
NCI-H1793 | 0.428
PC-14 | 0.281
EKVX | 0.61

Same assay, conditions: first compound 0.007906 µM

Cell Line | relative viability
BEN | 0.289
HARA | 0.263
NCI-H322M | 0.254
LCLC-97TM1 | 0.897
NCI-H2009 | 0.301
A-427 | 0.84
NCI-H441 | 0.59
NCI-H661 | 0.833
NCI-H1734 | 0.543
NCI-H460 | 0.675
NCI-H2347 | 0.323
SK-LU-1 | 0.195
NCI-H1395 | 0.412
201T | 0.624
NCI-H1915 | 0.374
HCC-827 | 0.317

Cell Line | relative viability
LXF-289 | 0.241
NCI-H23 | 1.05
NCI-H647 | 0.241
CAL-12T | 0.475
NCI-H1651 | 0.372
EPLC-272H | 0.376
NCI-H2228 | 0.644
NCI-H1355 | 0.701
NCI-H3122 | 1.03
NCI-H1437 | 0.409
NCI-H1755 | 0.343
NCI-H2023 | 0.789
HCC-15 | 0.601
NCI-H1793 | 0.375
PC-14 | 0.261
EKVX | 0.53

Same assay, conditions: first compound 0.025 µM

Cell Line | relative viability
BEN | 0.277
HARA | 0.28
NCI-H322M | 0.271
LCLC-97TM1 | 0.735
NCI-H2009 | 0.253
A-427 | 0.727
NCI-H441 | 0.679
NCI-H661 | 0.906
NCI-H1734 | 0.453
NCI-H460 | 0.532
NCI-H2347 | 0.299
SK-LU-1 | 0.192
NCI-H1395 | 0.352
201T | 0.6
NCI-H1915 | 0.338
HCC-827 | 0.32

Cell Line | relative viability
LXF-289 | 0.226
NCI-H23 | 0.82
NCI-H647 | 0.194
CAL-12T | 0.465
NCI-H1651 | 0.352
EPLC-272H | 0.418
NCI-H2228 | 0.453
NCI-H1355 | 0.783
NCI-H3122 | 0.663
NCI-H1437 | 0.314
NCI-H1755 | 0.456
NCI-H2023 | 0.601
HCC-15 | 0.682
NCI-H1793 | 0.39
PC-14 | 0.254
EKVX | 0.544

Same assay, conditions: first compound 0.07906 µM

Cell Line | relative viability
BEN | 0.274
HARA | 0.231
NCI-H322M | 0.201
LCLC-97TM1 | 0.852
NCI-H2009 | 0.247
A-427 | 0.733
NCI-H441 | 0.411
NCI-H661 | 0.881
NCI-H1734 | 0.484
NCI-H460 | 0.517
NCI-H2347 | 0.234
SK-LU-1 | 0.169
NCI-H1395 | 0.32
201T | 0.59
NCI-H1915 | 0.3
HCC-827 | 0.203

Cell Line | relative viability
LXF-289 | 0.142
NCI-H23 | 0.725
NCI-H647 | 0.112
CAL-12T | 0.317
NCI-H1651 | 0.348
EPLC-272H | 0.24
NCI-H2228 | 0.521
NCI-H1355 | 0.689
NCI-H3122 | 0.775
NCI-H1437 | 0.488
NCI-H1755 | 0.359
NCI-H2023 | 0.55
HCC-15 | 0.574
NCI-H1793 | 0.362
PC-14 | 0.278
EKVX | 0.302

Same assay, conditions: first compound 0.25 µM

Cell Line | relative viability
BEN | 0.298
HARA | 0.235
NCI-H322M | 0.245
LCLC-97TM1 | 0.878
NCI-H2009 | 0.267
A-427 | 0.764
NCI-H441 | 0.583
NCI-H661 | 0.872
NCI-H1734 | 0.473
NCI-H460 | 0.494
NCI-H2347 | 0.257
SK-LU-1 | 0.182
NCI-H1395 | 0.335
201T | 0.551
NCI-H1915 | 0.291
HCC-827 | 0.24
LXF-289 | 0.247
NCI-H23 | 0.964
NCI-H647 | 0.15
CAL-12T | 0.343
NCI-H1651 | 0.345
EPLC-272H | 0.305
NCI-H2228 | 0.602
NCI-H1355 | 0.685
NCI-H3122 | 0.889
NCI-H1437 | 0.434
NCI-H1755 | 0.417
NCI-H2023 | 0.625
HCC-15 | 0.656
